Earlier results in patent US20250262358A1, “SURGICAL SYSTEM AND METHODS OF USE” (MEDTRONIC, INC., priority 2021, published 2025).

Tested on: myofibroblast formation
Conditions: animal studies of capsular contracture with breast implants; Ajmal et al. (2003)

For `O=S(=O)([O-])CCS.[Na+]` [MESNA, sodium 2-mercaptoethane sulfonate], the myofibroblast formation is listed as “diminish myofibroblast formation”.
